In ChEMBL document CHEMBL1201862, “PubChem BioAssay data set” (2004):
Activity calls are given as the source filed them.

Tests used:
[1] = target: T1, Heat shock factor protein 1 (Mus musculus, UniProt P38532); test: enhancement of HSF1-driven luciferase signal – cell-based, NIH3T3, luminescence, dose retest, confirmation (AID 435004); assay type: functional;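 also: stress induced by proteasome inhibitor MG132 added 30 min after compound; luciferase reporter driven by HSF1 response element in NIH3T3 cells; actives raise luminescence as potentiators of the MG132 stress response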
T1 sequence (P38532 whole entry): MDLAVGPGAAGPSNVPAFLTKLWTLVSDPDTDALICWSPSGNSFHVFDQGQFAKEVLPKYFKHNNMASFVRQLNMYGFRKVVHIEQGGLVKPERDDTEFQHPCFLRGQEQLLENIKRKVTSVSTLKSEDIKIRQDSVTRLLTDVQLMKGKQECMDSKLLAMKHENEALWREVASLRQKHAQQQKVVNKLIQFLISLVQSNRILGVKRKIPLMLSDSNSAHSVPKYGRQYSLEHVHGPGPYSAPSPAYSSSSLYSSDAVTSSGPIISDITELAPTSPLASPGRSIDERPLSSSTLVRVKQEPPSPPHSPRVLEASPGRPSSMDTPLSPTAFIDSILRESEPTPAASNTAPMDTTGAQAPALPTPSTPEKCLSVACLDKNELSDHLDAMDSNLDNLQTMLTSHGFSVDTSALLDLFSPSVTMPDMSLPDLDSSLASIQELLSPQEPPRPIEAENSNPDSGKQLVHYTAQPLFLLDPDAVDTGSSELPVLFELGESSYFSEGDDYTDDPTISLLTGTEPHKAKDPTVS

Large T antigen = Large T antigen (Simian virus 40, UniProt P03070); assay type: functional, Betapolyomavirus macacae;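 also: Confirmatory-stage PubChem screen for compounds that inhibit SV40 T antigen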
[2] = target: T2, Corticotropin-releasing factor receptor 2/Corticotropin-releasing factor-binding protein (Homo sapiens, UniProt P24387+Q13324); test: Dose Response confirmation of uHTS hits for small molecule antagonists of the CRF-binding protein and CRF-R2 receptor complex.; assay type: functional; conditions: read-out: IC50_Mean
T2 sequence (Q13324 whole entry): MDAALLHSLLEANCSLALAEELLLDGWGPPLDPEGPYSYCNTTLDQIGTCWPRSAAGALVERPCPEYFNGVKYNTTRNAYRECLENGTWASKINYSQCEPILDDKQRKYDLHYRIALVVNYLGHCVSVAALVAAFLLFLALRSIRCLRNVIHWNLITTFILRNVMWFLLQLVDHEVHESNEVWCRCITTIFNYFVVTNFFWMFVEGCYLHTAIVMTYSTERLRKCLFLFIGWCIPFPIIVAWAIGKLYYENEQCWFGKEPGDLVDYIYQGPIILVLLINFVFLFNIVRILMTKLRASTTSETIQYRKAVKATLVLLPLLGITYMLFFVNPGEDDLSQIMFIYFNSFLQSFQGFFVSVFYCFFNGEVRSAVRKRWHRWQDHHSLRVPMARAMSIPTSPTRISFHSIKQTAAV
T2 sequence (P24387 whole entry): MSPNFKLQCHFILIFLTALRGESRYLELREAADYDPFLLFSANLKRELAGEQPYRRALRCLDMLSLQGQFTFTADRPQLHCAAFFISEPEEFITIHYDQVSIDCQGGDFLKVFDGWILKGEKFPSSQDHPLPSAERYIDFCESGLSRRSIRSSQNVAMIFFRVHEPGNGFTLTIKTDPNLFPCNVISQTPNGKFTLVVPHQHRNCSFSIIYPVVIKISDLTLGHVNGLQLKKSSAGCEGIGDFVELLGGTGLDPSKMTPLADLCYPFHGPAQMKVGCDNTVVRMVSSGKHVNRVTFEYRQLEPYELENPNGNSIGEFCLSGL

[3] = target: T2, Corticotropin-releasing factor receptor 2/Corticotropin-releasing factor-binding protein; test: activators of CRF receptor 2 with binding protein – uHTS hits, confirmation (AID 602473); assay type: functional; conditions: read-out: EC50_Mean
[4] = Luminescence Cell-Based Dose Retest to Confirm Inhibitors of Cancer Stem Cells. [Related pubchem assays (depositor defined):AID2717, AID2721]; assay type: functional; conditions: Homo sapiens
[5] = off-target signal loss in HeLa-CEM21 co-culture – HeLa F-luc CTL cells, cherry-picked, counter-screen for HIV-1 Env fusion inhibitor project, dose response (AID 652040); assay type: functional, cell-based;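 also: potency for signal decrease marking cytotoxic or nonspecific inhibition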
[6] = luciferase reporter signal suppression in cells – H4 neuroglioma cells, luminescence, dose response (AID 1990); assay type: functional, cell-based
[7] = Luminescence Cell-Based Dose Response HTS to Identify Inhibitors of 5'UTR Stem-Loop Driven Prion Protein mRNA Translation in H4 Neuroglioblastoma Cells. [Related pubchem assays: 1827 (Project Summary), 1813 (Primary HTS)]; assay type: functional
[8] = target: T1, Heat shock factor protein 1; test: decrease of HSF1-responsive luciferase luminescence – cell-based, NIH3T3, dose retest, confirmation (AID 2382); assay type: functional;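 also: NIH3T3 fibroblasts with HSF1-driven luciferase reporter stressed by proteasome inhibitor MG132; luminescence from HSF1-driven luciferase expression after 8 hours of MG132 stress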
[9] = alpha-synuclein stem-loop luciferase translation blockers – H4 neuroglioma cells, luminescence, confirmation (AID 1988); assay type: functional, cell-based
[10] = target: T3, Polyadenylate-binding protein 1 (Homo sapiens, UniProt P11940); test: MLLE binding blockers, Cy5 peptide tracer – biochemical, fluorescence polarization, Cy5-PAM2 peptide, secondary, miRNA deadenylation inhibitor project, dose response (AID 602260); assay type: functional; conditions: read-out: IC50_Mean
[11] = target: T3, Polyadenylate-binding protein 1; test: MLLE domain peptide-binding blockers, IC50 – biochemical, fluorescence polarization, FITC-PAM2 peptide, dose response (AID 602259); assay type: functional; conditions: read-out: IC50_Mean
[12] = target: T4, Ubiquitin-conjugating enzyme E2 N (Homo sapiens, UniProt P61088); assay type: functional;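 also: Dose-response confirmation in a TR-FRET assay detecting UBC13-driven polyubiquitin chain formation, inhibition measured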
T4 sequence (P61088 whole entry): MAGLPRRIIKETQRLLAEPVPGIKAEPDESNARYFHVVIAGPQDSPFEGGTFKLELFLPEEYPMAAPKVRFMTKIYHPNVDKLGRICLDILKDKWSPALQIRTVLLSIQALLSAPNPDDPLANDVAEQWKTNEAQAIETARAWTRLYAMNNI

INS1 = test: INS-1E survival protection against cytokine death – cell-based, luminescence, retest, dose response (AID 449756); assay type: functional; conditions: Rattus norvegicus;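 also: cell death triggered by IL-1 beta plus TNF-alpha plus IFN-gamma mixture; protective hits raise ATP signal compared with cytokine alone wells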
[13] = viability of uninfected HEp-2 cells – cell-based, HTS, cytotoxicity control for RSV inhibitor project, dose response (AID 2410); assay type: functional; conditions: human respiratory syncytial virus
[14] = target: T5, Rac GTPase-activating protein 1 (Homo sapiens, UniProt Q9H0H5); test: blockers of MgcRacGAP-driven Rac1 GTP hydrolysis – biochemical, ADP Hunter fluorescence, primary and confirmatory, confirmation (AID 624330); assay type: functional
T5 sequence (Q9H0H5 whole entry): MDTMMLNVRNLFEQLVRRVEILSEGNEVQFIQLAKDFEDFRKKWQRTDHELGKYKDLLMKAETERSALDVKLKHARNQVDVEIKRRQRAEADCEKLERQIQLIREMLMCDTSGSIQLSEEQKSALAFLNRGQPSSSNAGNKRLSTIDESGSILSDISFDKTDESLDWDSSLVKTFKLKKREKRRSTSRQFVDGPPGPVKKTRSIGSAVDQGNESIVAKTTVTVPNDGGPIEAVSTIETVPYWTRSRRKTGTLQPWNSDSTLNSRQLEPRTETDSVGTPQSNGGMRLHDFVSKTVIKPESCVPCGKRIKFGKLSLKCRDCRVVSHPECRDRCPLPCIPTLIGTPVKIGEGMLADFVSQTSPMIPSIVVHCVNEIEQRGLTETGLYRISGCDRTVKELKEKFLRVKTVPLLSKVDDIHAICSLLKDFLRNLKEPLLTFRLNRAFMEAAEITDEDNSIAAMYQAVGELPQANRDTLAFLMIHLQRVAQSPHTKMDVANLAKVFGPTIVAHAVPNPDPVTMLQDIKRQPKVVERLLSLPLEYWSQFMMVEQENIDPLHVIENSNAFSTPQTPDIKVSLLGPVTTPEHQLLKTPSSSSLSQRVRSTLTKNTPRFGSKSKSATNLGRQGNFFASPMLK

T3 sequence (P11940 whole entry, the tested form may be a part): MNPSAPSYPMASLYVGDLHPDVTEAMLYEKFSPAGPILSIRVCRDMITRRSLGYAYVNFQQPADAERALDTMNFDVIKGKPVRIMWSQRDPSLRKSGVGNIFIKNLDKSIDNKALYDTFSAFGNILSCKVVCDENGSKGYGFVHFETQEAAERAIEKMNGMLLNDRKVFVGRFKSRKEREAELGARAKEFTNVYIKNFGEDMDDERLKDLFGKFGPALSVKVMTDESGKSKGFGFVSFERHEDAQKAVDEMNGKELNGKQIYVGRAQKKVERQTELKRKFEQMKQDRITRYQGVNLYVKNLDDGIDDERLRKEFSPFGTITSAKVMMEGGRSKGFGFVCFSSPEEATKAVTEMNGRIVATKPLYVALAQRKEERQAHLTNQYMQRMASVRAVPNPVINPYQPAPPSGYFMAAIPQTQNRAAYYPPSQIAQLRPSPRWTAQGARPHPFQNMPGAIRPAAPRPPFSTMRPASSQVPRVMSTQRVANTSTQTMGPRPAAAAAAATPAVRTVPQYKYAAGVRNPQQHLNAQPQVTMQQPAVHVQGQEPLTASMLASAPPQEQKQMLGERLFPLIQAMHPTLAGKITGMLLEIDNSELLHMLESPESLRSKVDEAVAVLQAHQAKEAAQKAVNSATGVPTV
Large T antigen, sequence (P03070 whole entry): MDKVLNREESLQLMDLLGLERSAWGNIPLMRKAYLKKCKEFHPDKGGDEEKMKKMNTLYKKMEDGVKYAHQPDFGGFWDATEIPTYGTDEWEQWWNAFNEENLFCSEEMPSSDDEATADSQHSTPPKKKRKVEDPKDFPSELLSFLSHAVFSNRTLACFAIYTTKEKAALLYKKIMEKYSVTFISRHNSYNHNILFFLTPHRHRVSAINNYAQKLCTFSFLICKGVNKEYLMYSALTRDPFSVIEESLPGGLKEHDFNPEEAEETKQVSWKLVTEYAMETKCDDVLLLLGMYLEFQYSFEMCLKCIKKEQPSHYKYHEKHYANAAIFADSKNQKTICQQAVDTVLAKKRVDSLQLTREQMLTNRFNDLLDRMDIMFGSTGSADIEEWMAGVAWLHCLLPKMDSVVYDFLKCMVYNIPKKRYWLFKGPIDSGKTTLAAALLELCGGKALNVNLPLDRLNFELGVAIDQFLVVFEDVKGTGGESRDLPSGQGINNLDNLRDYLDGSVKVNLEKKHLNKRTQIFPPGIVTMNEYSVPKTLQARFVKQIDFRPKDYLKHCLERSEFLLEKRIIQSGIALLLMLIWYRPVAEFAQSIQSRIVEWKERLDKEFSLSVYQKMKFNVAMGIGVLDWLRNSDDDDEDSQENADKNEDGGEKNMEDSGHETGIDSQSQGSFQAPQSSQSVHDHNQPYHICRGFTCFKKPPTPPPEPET

Compound: Cc1cccc(-c2cc(C(=O)Nc3ccncc3)c3ccccc3n2)c1
- EC50 [1]: 43.1 µM (active)

Compound: ClCC1=Nc2cccc3cccc(c23)N1
- IC50 (Large T antigen): 10 µM (active)

Compound: O=C(NC(=S)Nc1ccc(O)cc1)c1cncc(Br)c1
- IC50 (Large T antigen): 6.41 µM (active)

Compound: COc1cc(C(c2c(C)n[nH]c2O)c2c(C)n[nH]c2O)ccc1OC(=O)c1cccc([N+](=O)[O-])c1
- IC50 (Large T antigen): > 100 µM (active)

Compound: O=C1CC2CS(=O)(=O)CC2N1c1ccc(Oc2ccccc2)cc1 (stereo unspecified)
- IC50 [2]: > 47.1 µM (inactive)
- EC50 [3]: > 53 µM (inactive)

Compound: Oc1ccc(-c2cnc(-c3ccc(O)cc3)nc2)cc1
- AC50 [4]: 0.342 µM (active)
- EC50 [1]: 4.99 µM (active)

Compound: Cc1cc(Cl)ccc1OCC(=O)NNC(=O)C1CSC2(C)CCC(=O)N12 (stereo unspecified)
- AC50 [5]: 39.8 µM (active)

Compound: Cc1ccnc(NS(=O)(=O)c2ccc(NC(=O)COc3ccccc3)cc2)n1
- EC50 [6]: > 120 µM (not active)
- EC50 [7]: > 120 µM (not active)
- EC50 [8]: > 195 µM (not active)
- EC50 [9]: > 120 µM (not active)

Compound: COc1ccc(NC(=O)CSc2nnc(Cn3cnc([N+](=O)[O-])n3)n2C)cc1
- EC50 [1]: > 260 µM (inactive)

Compound: CCc1ccc(S(=O)(=O)N=C(S)NC2CCCCC2)cc1
- IC50 [10]: > 66 µM (inactive)
- IC50 [11]: > 66 µM (inactive)

Compound: CC(C)NC(=O)NC(=O)COc1ccc(Br)cc1Br
- EC50 [1]: > 260 µM (inactive)

Compound: CN1C(=O)/C(=C2/C=CC=CN2C)OC1=S
- IC50 [10]: > 66 µM (inactive)
- IC50 [11]: > 66 µM (inactive)

Compound: COc1cc2nc(S)nc(NCc3ccc(Cl)cc3)c2cc1OC
- EC50 [1]: > 260 µM (inactive)

Compound: CCC(=O)NC(c1cccs1)c1cc(Cl)c2ccccc2c1O (stereo unspecified)
- IC50 [12]: > 20 µM (inactive)

Compound: OCCN1CCN(CC/C=C2/c3ccccc3Sc3ccc(Cl)cc32)CC1
- IC50 [12]: > 20 µM (inactive)

Compound: Fc1ccc(CN(Cc2ccccc2)C(c2cccs2)c2nnnn2C2CCCCC2)cc1 (stereo unspecified)
- AC50 (INS1): 6.47 µM (active)

Compound: O=C(CSc1nnc(C2COc3ccccc3O2)o1)N1CCCC1 (stereo unspecified)
- IC50 [10]: > 66 µM (inactive)
- IC50 [11]: > 66 µM (inactive)

Compound: O=C(NCc1nnc(SCc2ccccc2)n1-c1ccccc1)C12CC3CC(CC(C3)C1)C2
- EC50 [1]: > 260 µM (inactive)

Compound: COc1cccc(CNc2ccc(Br)cn2)c1O
- EC50 [1]: 34.1 µM (active)

Compound: CC(=O)c1c(C)oc2ccc(N(C(C)=O)S(=O)(=O)c3cccc4cccnc34)cc12
- AC50 (INS1): 3.85 µM (active)

Compound: CCCCCc1cc(=O)oc2c(C(CCN3CCCC(C)C3)c3cc(OC)c(OC)c(OC)c3)c(OC)cc(OC)c12 (stereo unspecified)
- EC50 [6]: > 120 µM (not active)
- EC50 [7]: > 120 µM (not active)
- EC50 [9]: > 120 µM (not active)
- AC50 [4]: 6.25 µM (active)
- AC50 (INS1): 8.07 µM (active)

Compound: O=C(CSc1c[nH]nn1)Nc1ccc(O)c(C(=O)O)c1
- EC50 [8]: > 195 µM (not active)
- IC50 [10]: > 66 µM (inactive)
- IC50 [11]: > 66 µM (inactive)

Compound: COc1ccc(CN2C(=O)NC(=O)/C(=C/c3ccoc3)C2=O)cc1
- IC50 (Large T antigen): 36.9 µM (active)

Compound: CS(=O)(=O)N1CCN(C(=O)C(Sc2ccccc2)c2ccccc2)CC1 (stereo unspecified)
- IC50 [10]: > 66 µM (inactive)
- IC50 [11]: > 66 µM (inactive)

Compound: COc1ccnc2c1c(=O)n(Cc1cccc(F)c1)c(=O)n2C
- IC50 [12]: > 20 µM (inactive)

Compound: O=C1NC(c2ccccc2)=C(c2nc3ccccc3s2)C(c2ccc(F)cc2)N1 (stereo unspecified)
- CC50 [13]: 10.4 µM (active)
- EC50 [6]: > 60 µM (not active)
- EC50 [7]: > 120 µM (not active)
- EC50 [9]: 20.8 µM (active)

Compound: CC(Nc1ccc([N+](=O)[O-])cc1[N+](=O)[O-])c1ccccc1 (stereo unspecified)
- IC50 [2]: 34.7 µM (active)
- EC50 [3]: > 53 µM (inactive)

Compound: Cc1ccc(CC(=O)NCCCc2ccccc2)cc1
- IC50 [2]: > 47.1 µM (inactive)
- EC50 [3]: > 53 µM (inactive)

Compound: Cc1cc(C(=O)NNC(=O)C(CCC(N)=O)NS(=O)(=O)c2ccc(Cl)cc2)c(C)o1 (stereo unspecified)
- IC50 [2]: > 47.1 µM (inactive)
- EC50 [3]: > 53 µM (inactive)

Compound: Cc1ccc(NC(=O)N2CCCC2C(=O)Nc2c(C)cc(C)cc2C)cc1 (stereo unspecified)
- EC50 [1]: > 260 µM (inactive)

Compound: CC1=C(C(=O)N(C(C)C)C(C)C)CC(CC(=O)NC2CCCCC2)C(=O)N1Cc1ccccc1 (stereo unspecified)
- IC50 [2]: > 47.1 µM (inactive)
- EC50 [3]: > 53 µM (inactive)

Compound: O=C(NCc1ccccc1)c1ccc(Cl)cc1
- IC50 [2]: > 47.1 µM (inactive)
- EC50 [3]: > 53 µM (inactive)

Compound: Nn1cnnc1N/N=C/c1cc([N+](=O)[O-])c(Cl)cc1Cl
- EC50 [1]: > 260 µM (inactive)

Compound: COc1ccc2[nH]c3c(=O)n(CCCCC(=O)N4CCC(C(N)=O)CC4)c(=S)[nH]c3c2c1
- IC50 [10]: > 66 µM (inactive)
- IC50 [11]: > 66 µM (inactive)
- IC50 [14]: 55.4 µM (active)

Compound: O=Nc1c(-c2ccccc2)[nH]n(-c2ccccc2)c1=O
- EC50 [1]: 3.87 µM (active)

Compound: COc1ccc(O)c(/C=N/NC(=O)c2cccc(N3CCCC3=O)c2)c1
- AC50 (INS1): 3.55 µM (active)

Compound: COc1cc(/C=N/n2cnnc2)ccc1OC(=O)c1ccncc1
- IC50 (Large T antigen): 75 µM (active)
- IC50 [14]: 31 µM (active)

Compound: Oc1c(Br)cc(-c2ccccc2)cc1Br
- IC50 [2]: 10.1 µM (active)
- EC50 [3]: > 53 µM (inactive)
- IC50 [14]: 85 µM (active)
